# Measurements as given in article PMC4585737, “Lipoproteins/peptides are sepsis-inducing toxins from bacteria that can be neutralized by synthetic anti-endotoxin peptides” (Scientific Reports, 2015).
# “Also recorded” adds a separate entry of the source.
# How the values were obtained:
# Pam3CSK4 = assay: Isothermal titration calorimetry of peptide into Pam3CSK4; format: binding
# Experimental: Microcalorimetric measurements of peptide binding to selected LP, i.e., Pam3CSK4 and FSL-1 were performed on a MCS isothermal titration calorimeter (Microcal, Freiburg, Germany) at 37 °C, as previously described. The LP containing solutions (0.05 mM, prepared as described above) were dispensed into the microcalorimetric cell (volume 1.5 ml), and the peptide solutions (1 mM) were loaded into the syringe compartment (volume 0.1 ml). After temperature equilibration, the peptide was titrated in 3 μl aliquots every 5 min into the LP-containing cell under constant stirring and the heat of interaction after each injection measured by the MCS instrument was plotted versus time.
# human MNCs = details: even at [LPS]:[Aspidasept] weight ratios as low as 1:1; cited from earlier work
# Text: In this section, we first present in vitro data on the production of pro-inflammatory cytokines by human cells in response to LP or LTA from different origin and its neutralization by SALP. Then, we used a mouse model of acute toxemia to characterize the in vivo expression of those cytokines and to study if SALP can protect animals against lethal LP-induced sepsis.
# FSL-1 aggregates = assay: FRET intercalation of peptide into FSL-1 aggregates; format: binding
# Text: The ability of selected peptides to intercalate into LP aggregates was investigated exemplarily for FSL-1 and for LP SitC by FRET as described earlier. Briefly, the LP samples were doubly labelled with the fluorescent phospholipid dyes N-(7-nitrobenz-2-oxa-1,3-diazol-4-yl)-phosphatidyl ethanolamine (NBD-PE) and N-(lissamine rhodamine B sulfonyl)-phosphatidylethanolamine (Rh-PE) (Molecular Probes, Life Technologies). Intercalation of unlabeled molecules into the doubly labeled liposomes leads to probe dilution and to a lower FRET efficiency: Therefore, the emission intensity of the donor ID increases and that of the acceptor IA decreases (for the sake of clarity, only the quotient of the donor and acceptor emission intensity will be shown here).
# In all the experiments, the peptides (100 μl of a 100 μM Hepes solution) were added to doubly labelled LP (900 μl of a 10 μM solution) at 50 s after equilibration. NBD-PE was excited at 470 nm and the donor and acceptor fluorescence intensities were monitored at 531 and 593 nm, respectively, and the fluorescence signal ID/IA was recorded for further 250 s. The measurement was repeated twice.
# human macrophages = assay: TNFα production in human macrophages stimulated by LPS or LP, and its inhibition by SALP; format: cell-based
# Experimental: In some stimulation experiments, also macrophages were used. Briefly, MNC were isolated from peripheral blood from healthy donors by the Hypaque-Ficoll gradient method. To differentiate the monocytes to macrophages cells were cultivated in Teflon bags in the presence of 2 ng/ml M-CSF in RPMI 1640 medium (endotoxin <0.01 EU/ml; Biochrom, Berlin, Germany) containing 100 U/ml penicillin, 100 μg/ml streptomycin, 2 mM L-glutamine and 4% heat-inactivated human serum type AB at 37 °C and 6% CO2. On day 6, cells were washed with PBS, detached by Trypsin-EDTA treatment and seeded at 1 × 10^6 cells/ml in complete medium in 96-well tissue culture dishes (Nunc, Wiesbaden, Germany). After stimulation of cells with various LP for 4 h, cell-free supernatants of duplicate samples were collected, pooled and stored at −20 °C until determination of cytokine content. Data shown are representative of at least three independent experiments.
# LP preparations were pre-warmed for 30 min at 37 °C, and added to the cultures at 20 μl per well. In inhibition experiments, different SALP were added directly after LPS/LP/LTA administration. […]
sequence,measurement,setting,value
"GCKKYRRFRWKFKGKFWFWG [Aspidasept®, synthetic anti-LPS peptide (SALP), 20′mer, anti-septic therapeutic drug candidate]",ITC: Pam3CSK4:peptide interaction,"Pam3CSK4; LP 0.05 mM, peptide 1 mM titrated in 3 μl portions every 5 min, 37 °C",weak exothermic reaction; also recorded: no clear thermal reaction
same,affinity of the peptide towards the LP,"Pam3CSK4; Pam3CSK4, concluded from ITC",poor affinity
same,inhibition of LPS-induced cytokine expression in human MNCs,human MNCs,efficiently inhibits
same,FRET: intercalation on increase in peptide concentration,FSL-1 aggregates; FSL-1:Pep19-2.5 1:1 M/M vs 1:0.1 M/M,did not lead to a further increase in intercalation
same,FRET: incorporation into the LP aggregate,"FSL-1 aggregates; [LP]:[Aspidasept] 1:0.1 molar, peptide added after 50 s, ID/IA signal",instantaneous incorporation
same,inhibition of TNFα production,"human macrophages; stimulus LP SitC 1000 and 100 ng/ml, 10:1 excess of peptide, three independent measurements",strong inhibition
same,inhibition of LP-dependent TNFα secretion,"human macrophages; stimulus LP SitC, all tested concentrations, [LP]:[Pep] 1:10 and 1:100 weight%",almost totally abrogated
